Key:
[1] = biological target: T1, C-C chemokine receptor type 2 (Homo sapiens, UniProt P41597); assay: Antagonist activity at CCR2b in human THP1 cells assessed as inhibition of human MCP1 induced calcium flux by fluo-4 dye based fluorescence assay
[2] = biological target: T1, C-C chemokine receptor type 2; assay: Non-competitive insurmountable antagonist activity at human CCR2 expressed in human U2OS cell membranes assessed as pEC50 for CCL2-stimulated [35S]GTPgammaS binding at 10 nM preincubated for 30 mins followed by [35S]GTPgammaS addition and measured after 90 mins (Rvb = 8.10 +/- 0.06 No_unit)
[3] = biological target: T2, C-C chemokine receptor type 5 (Homo sapiens, UniProt P51681); assay: Non-competitive insurmountable antagonist activity at human CCR5 expressed in human U2OS cell membranes assessed as pEC50 for CCL3-stimulated [35S]GTPgammaS binding at 100 nM preincubated for 30 mins followed by [35S]GTPgammaS addition and measured after 90 mins (Rvb = 8.42 +/- 0.06 No_unit)
T2 sequence (P51681 whole entry): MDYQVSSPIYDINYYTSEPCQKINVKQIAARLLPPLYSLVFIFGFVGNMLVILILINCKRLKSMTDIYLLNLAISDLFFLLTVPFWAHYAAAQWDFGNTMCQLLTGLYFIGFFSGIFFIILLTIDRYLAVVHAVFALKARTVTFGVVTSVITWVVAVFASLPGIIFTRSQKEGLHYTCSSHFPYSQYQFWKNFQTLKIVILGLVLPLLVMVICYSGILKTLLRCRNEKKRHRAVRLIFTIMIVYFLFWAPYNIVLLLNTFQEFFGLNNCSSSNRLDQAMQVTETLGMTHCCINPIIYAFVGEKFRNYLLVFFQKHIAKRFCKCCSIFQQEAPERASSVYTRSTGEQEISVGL

[4] = biological target: T1, C-C chemokine receptor type 2; assay: Non-competitive insurmountable antagonist activity at human CCR2 expressed in human U2OS cell membranes assessed as pEC50 for CCL2-stimulated [35S]GTPgammaS binding at 100 nM preincubated for 30 mins followed by [35S]GTPgammaS addition and measured after 90 mins (Rvb = 8.10 +/- 0.06 No_unit)
[5] = biological target: T1, C-C chemokine receptor type 2; assay: Non-competitive insurmountable antagonist activity at human CCR2 expressed in human U2OS cell membranes assessed as EC50 for CCL2-stimulated [35S]GTPgammaS binding at 10 nM preincubated for 30 mins followed by [35S]GTPgammaS addition and measured after 90 mins (Rvb = 8 nM)
[6] = biological target: T2, C-C chemokine receptor type 5; assay: Non-competitive insurmountable antagonist activity at human CCR5 expressed in human U2OS cell membranes assessed as EC50 for CCL3-stimulated [35S]GTPgammaS binding at 1000 nM preincubated for 30 mins followed by [35S]GTPgammaS addition and measured after 90 mins (Rvb = 4 nM)
[7] = biological target: T1, C-C chemokine receptor type 2; assay: Non-competitive insurmountable antagonist activity at human CCR2 expressed in human U2OS cell membranes assessed as pEC50 for CCL2-stimulated [35S]GTPgammaS binding at 30 nM preincubated for 30 mins followed by [35S]GTPgammaS addition and measured after 90 mins (Rvb = 8.10 +/- 0.06 No_unit)
[8] = biological target: T2, C-C chemokine receptor type 5; assay: Non-competitive insurmountable antagonist activity at human CCR5 expressed in human U2OS cell membranes assessed as pEC50 for CCL3-stimulated [35S]GTPgammaS binding at 300 nM preincubated for 30 mins followed by [35S]GTPgammaS addition and measured after 90 mins (Rvb = 8.42 +/- 0.06 No_unit)
[9] = biological target: T2, C-C chemokine receptor type 5; assay: Non-competitive insurmountable antagonist activity at human CCR5 expressed in human U2OS cell membranes assessed as EC50 for CCL3-stimulated [35S]GTPgammaS binding at 100 nM preincubated for 30 mins followed by [35S]GTPgammaS addition and measured after 90 mins (Rvb = 4 nM)
[10] = biological target: T2, C-C chemokine receptor type 5; assay: Non-competitive insurmountable antagonist activity at human CCR5 expressed in human U2OS cell membranes assessed as EC50 for CCL3-stimulated [35S]GTPgammaS binding at 300 nM preincubated for 30 mins followed by [35S]GTPgammaS addition and measured after 90 mins (Rvb = 4 nM)
[11] = biological target: T1, C-C chemokine receptor type 2; assay: Non-competitive insurmountable antagonist activity at human CCR2 expressed in human U2OS cell membranes assessed as EC50 for CCL2-stimulated [35S]GTPgammaS binding at 1 nM preincubated for 30 mins followed by [35S]GTPgammaS addition and measured after 90 mins (Rvb = 8 nM)
[12] = biological target: T1, C-C chemokine receptor type 2; assay: Non-competitive insurmountable antagonist activity at human CCR2 expressed in human U2OS cell membranes assessed as pEC50 for CCL2-stimulated [35S]GTPgammaS binding at 1 nM preincubated for 30 mins followed by [35S]GTPgammaS addition and measured after 90 mins (Rvb = 8.10 +/- 0.06 No_unit)
[13] = biological target: T1, C-C chemokine receptor type 2; assay: Non-competitive insurmountable antagonist activity at human CCR2 expressed in human U2OS cell membranes assessed as EC50 for CCL2-stimulated [35S]GTPgammaS binding at 3 nM preincubated for 30 mins followed by [35S]GTPgammaS addition and measured after 90 mins (Rvb = 8 nM)
[14] = biological target: T2, C-C chemokine receptor type 5; assay: Non-competitive insurmountable antagonist activity at human CCR5 expressed in human U2OS cell membranes assessed as pEC50 for CCL3-stimulated [35S]GTPgammaS binding at 30 nM preincubated for 30 mins followed by [35S]GTPgammaS addition and measured after 90 mins (Rvb = 8.42 +/- 0.06 No_unit)
[15] = biological target: T1, C-C chemokine receptor type 2; assay: Non-competitive insurmountable antagonist activity at human CCR2 expressed in human U2OS cell membranes assessed as pEC50 for CCL2-stimulated [35S]GTPgammaS binding at 3 nM preincubated for 30 mins followed by [35S]GTPgammaS addition and measured after 90 mins (Rvb = 8.10 +/- 0.06 No_unit)
[16] = biological target: T1, C-C chemokine receptor type 2; assay: Displacement of [3H]-CCR2-RA-[R] from human CCR2 expressed in human U2OS cells incubated for 2 hrs by scintillation spectrometric method

T1 sequence (P41597 whole entry): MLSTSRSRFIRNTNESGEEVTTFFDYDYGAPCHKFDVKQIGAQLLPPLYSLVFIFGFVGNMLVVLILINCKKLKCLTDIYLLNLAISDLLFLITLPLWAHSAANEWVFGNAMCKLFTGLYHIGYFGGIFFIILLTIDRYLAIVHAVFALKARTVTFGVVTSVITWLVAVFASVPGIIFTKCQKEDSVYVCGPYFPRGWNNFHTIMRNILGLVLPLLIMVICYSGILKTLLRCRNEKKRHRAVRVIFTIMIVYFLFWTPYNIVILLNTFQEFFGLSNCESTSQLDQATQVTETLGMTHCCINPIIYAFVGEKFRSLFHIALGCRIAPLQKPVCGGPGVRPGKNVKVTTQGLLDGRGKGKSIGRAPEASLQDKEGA

Row | Compound | EC50 [2] | EC50 [3] | EC50 [5] | EC50 [8] | EC50 [9] | EC50 [10] | Ki [16] | also measured
1 | O=c1c(Cc2cccc(Cl)c2)c(C2CC2)[nH]c2ncnn12 |  |  |  |  |  |  |  | IC50 [1]: 16 nM
2 | Nc1nc2[nH]c(C3CC3)c(Cc3cccc(F)c3)c(=O)n2n1 |  |  |  |  |  |  | 2.95 nM | 
3 | Nc1nc2[nH]c(-c3ccccc3)c(Cc3cccc(Cl)c3)c(=O)n2n1 |  |  |  |  |  |  | 22.9 nM | 

More lines, main results first:

Row | EC50 [2] | EC50 [3] | EC50 [5] | EC50 [8] | EC50 [9] | EC50 [10] | Ki [16] | Compound | also measured
4 | 13 nM | 4.5 nM | 13 nM | 7.2 nM | 5.0 nM | 8.0 nM |  | CC(C)c1[nH]c2nc(N)nn2c(=O)c1Cc1cccc(Cl)c1Cl | EC50 [4]: 54 nM; EC50 [6]: 9.0 nM; EC50 [7]: 25 nM
5 | 135 nM | 6.2 nM | 148 nM | 8.9 nM | 6.0 nM | 9.0 nM |  | CC(C)c1[nH]c2nc(N)nn2c(=O)c1Cc1ccc(Cl)c(Br)c1 | EC50 [11]: 13 nM; EC50 [12]: 12 nM; EC50 [13]: 32 nM; EC50 [14]: 5.0 nM; EC50 [15]: 30 nM
6 |  |  |  |  |  |  | 0.447 nM | Nc1nc2[nH]c(C3CC3)c(Cc3ccc(Cl)c(Cl)c3)c(=O)n2n1 | 
